“Also recorded” adds a separate entry of the source.
Tests used:
Assay type in all cases: in vivo, human
[1] = test system: IL-1β; experiment: Urine IL-1β concentration, patients with chronic cystitis; details: FIG. 5
Protocol: Samples: Blood and urine samples for investigation of inflammatory processes as well as genetic and proteomic analyses.
For evaluation of the levels of systemic and local inflammatory processes, analyses of CRP, neutrophil count and Interleukins are performed in serum and urine.
To be able to define a treatment group where anakinra might serve as an effective therapeutic option, we searched for urine biomarkers. In addition to patient urine samples, samples were collected from healthy controls to compare urine concentrations of IL-1β and Substance P (SP). […] In contrast, SP concentrations was increased in patients during maximum symptoms (209 vs 75 pg/ml, P=0.003), indicating a biomarker for bladder inflammation (FIG. 2).

[2] = test system: patients with chronic pelvic pain syndrome (CPPS); experiment: Investigator driven open trial, ten CPPS patients: symptoms, quality of life, side effects
Protocol: Here we identify that IL-1RA treatment may be useful to alleviate bladder pain. The hypothesis was evaluated by enrolling ten patients with chronic pelvic pain syndrome, (CPPS) in an investigator driven open trial (see below and FIG. 7). The patients received daily anakinra treatment (100 mg) until a stable response was observed. Treatment was then transiently interrupted and when the symptoms returned, treatment was resumed. Patient 10 remained asymptomatic.
Ten patients with a long history of CPPS were enrolled after informed consent (age, gender, disease profile) and instructed to fill in a questionnaire detailing frequency of urination, pain, frequency of pain medication and quality of life.
A significant reduction in pain, urgency and frequency of urination was recorded in 9/10 patients (FIGS. 7c, 7d and 7e). Laboratory samples were obtained at diagnosis, after the initiation of anakinra treatment (n=10), during the “treatment break” and after continuation of anakinra treatment (n=9). Urine neuropeptides involved in the pain response (Substance P) were inhibited, with a biphasic response following the symptom score (FIG. 7f).

[3] = test system: patients with bladder pain syndrome (BPS); experiment: Open label trial, ten BPS patients: symptoms, quality of life, side effects
Protocol: The inventors have tested the hypothesis that IL-1RA treatment may be useful to alleviate bladder pain. Ten patients with BPS were enrolled in an investigator-driven open trial. The patients received daily Kineret treatment (100 mg) for seven days. Treatment was then transiently interrupted and if the symptoms returned, treatment was resumed.
a) Schematic of the study protocol. Ten patients with a long history of BPS (ref EAU guidelines) were enrolled after informed consent and instructed to fill in a questionnaire detailing frequency of urination, pain, frequency of pain medication and quality of life. Laboratory samples were obtained at diagnosis, after the initiation of Kineret treatment (n=10), during the “treatment break” and after continuation of Kineret treatment (n=9). Neuropeptides involved in the pain response (Substance P) were quantified in urine. Peripheral blood RNA was subjected to genome wide transcriptomic analysis to define molecular effects of Kineret treatment.
In this study, we addressed if IL-1RA treatment might be efficient in patients with chronic bladder pain. We conducted an explorative, open label trial in patients with BPS (Table 5). Patients received daily subcutaneous injections of Anakinra (100 mg) for seven days and the therapeutic effects were recorded. To address potential placebo effects, treatment was transiently interrupted for a maximum of 14 days and when the symptoms returned, treatment was resumed and continued with individual treatment regimes. […] In the remaining patients, bladder pathology was not detected. During the study, patients were instructed to keep a symptom journal recording the sensation of pain and the frequency of micturition.

[4] = test system: patients with chronic cystitis and CPPS; experiment: Open Anakinra trial, symptom score
Protocol: The applicants have performed an open Anakinra trial in patients with chronic inflammatory conditions in the lower urinary tract, specifically chronic cystitis and CPPS. This structured observational study to investigate the effect of treatment with Anakinra in patients suffering from chronic cystitis and CPPS.
Inclusion visit: Patient is informed about the study and is included after signed informed consent is obtained. A structured interview and clinical investigation is performed. The disease severity is evaluated using a symptom score. Follow-up visits are booked.
A structured interview and clinical investigation is performed. Symptom severity is recorded.
Treatment with Anakinra is started and continued for seven days (until next visit).
Evaluation of effect after one week of treatment with Anakinra. A structured interview and clinical investigation are performed. Symptom severity is evaluated. Patients with no treatment effect are excluded from further treatment.
Follow-up after treatment pause. A structured interview and clinical investigation is performed. Symptom severity is evaluated. If the patient has relapse, Anakinra treatment is resumed.
Follow-up with evaluation of effect after three weeks of treatment with Anakinra. A structured interview and clinical investigation is performed. Symptom severity is evaluated.
Final visit after pause of treatment with Anakinra. A structured interview and clinical investigation is performed. Symptom severity is evaluated.
During patient visits, structured interviews evaluating symptoms (including consumption of medications) and clinical investigations are performed. Throughout the study period, the patients make daily symptom scores regarding pain, urination, sense of urgency and quality of life following a structured formula.

[5] = test system: WBC and Interleukins (IL6, IL8 and IL1b) in urine; experiment: Nine-patient study: estimated WBC and Interleukins in urine; details: prior, during or after treatment
Text: The effect of anakinra in the treatment of CPPS was studied in a clinical study. Inclusion criteria were CPPS mainly with the Bladder Pain phenotype, but also the with the Urethral and Prostate Pain phenotype. Exclusion criteria were uncontrolled diabetes mellitus, treatment for malignant disease within the preceding 10 years, pregnancy and age <18 years and ongoing infectious diseases, including urinary tract infections, and neutropenia (<1.5×10^9/L). Patients gave informed consent for the use of unidentified personal clinical data for research purposes. Included patients were examined using clinical standard methods to rule out any ongoing disease. Blood and serum for hemoglobulin, liver and kidney function tests and White Blood Cell (WBC) counts were analysed. Urine was obtained for dip stick test (leukocytesteras for WBC estimation, the nitur test for ruling out bacteriuria), standard urinary Interleukins (IL6, IL8 and IL1b) and for urine culture. Cystoscopy and CT urography were performed in all patients. Blood and serum analysis and cystoscopy were repeated approximately two weeks after the start of treatment, and after approximately three months. Nine patients were recruited (Table 2).

“anakinra: interleukin-1 receptor antagonist (r-metHuIL-1ra) produced in Escherichia coli; recombinant, slightly modified version of the human interleukin-1 receptor antagonist protein” was tested, and the “urine IL-1β levels after Anakinra treatment” value [1] was “do not change”, the “symptom score (pain and frequency), words” value ([2]; P<0.01) was “reduction in symptom score” and the “quality of life, words” value ([2]; P<0.02) was “increase in quality of life”. For the same substance, the “patients with dramatic clinical effects” value ([2]; daily 100 mg, ten CPPS patients) was 9/10, the “duration of symptom relief” value ([2]; range over patients) was 0.5 to 8 days and the “time to symptom relief after the first dose” value ([2]; range over patients) was 1 to 6 h. The “patients with significant reduction in pain, urgency and frequency of urination” value ([2]; ten CPPS patients) was 9/10, the side effects ([2]; ten CPPS patients, 100 mg) was “Two patients reported local irritation at the injection site; also recorded: one patient developed neutropenia” and the “patients with dramatic clinical improvement” value ([3]; daily 100 mg for seven days, ten BPS patients) was 9/10. For the same substance, the lasting therapeutic effects ([3]; human, in vivo) was 3 days, the “quality of life, words” value ([3]; human, in vivo) was “increased quality of life” and the side effects ([3]; human, in vivo) was “Two patients reported local irritation at the injection site”. The “symptom score (pain and frequency), words” value ([3]; human, in vivo) was “reduction in symptom score”, the “quality of life, words” value ([3]; human, in vivo, listed as Kineret) was “marked increase in quality of life” and the “symptom relief at the onset of treatment, median” value ([3]; median) was 2 h. For the same substance, the “patients with complete, or close to complete clinical response” value ([3]; of ten patients) was “Nine of the patients”, the “relief of symptoms after the first injection” value ([3]; one patient with very severe BPS/ICS) was 1 to 2 h and the “duration of symptom relief” value ([3]; range over patients) was 0.5 to 8 days. The “time to symptom relief after the first dose” value ([3]; range over patients) was 1 to 6 h, the “patients in whom treatment was proven effective (decrease in symptom scoring)” value ([4]; in vivo) was 60% and the “Symptom Score Decrease at 1 week of treatment (number of patients)” value ([4]; of 15 patients recruited) was 9. The “Symptom Score No Decrease at 1 week of treatment (number of patients)” value ([4]; of 15 patients recruited) was 6 and the “estimated WBC and Interleukins in urine, words” value [5] was “not significantly increased”.

Source: patent publication US20220252625A1, “TREATMENT AND DIAGNOSIS OF CHRONIC INFLAMMATORY CONDITIONS IN THE LOWER URINARY TRACT” (SELECTIMMUNE PHARMA AB, priority 2019, published 2022)
